Structures are written as SMILES.

T1 sequence (P35968 whole entry): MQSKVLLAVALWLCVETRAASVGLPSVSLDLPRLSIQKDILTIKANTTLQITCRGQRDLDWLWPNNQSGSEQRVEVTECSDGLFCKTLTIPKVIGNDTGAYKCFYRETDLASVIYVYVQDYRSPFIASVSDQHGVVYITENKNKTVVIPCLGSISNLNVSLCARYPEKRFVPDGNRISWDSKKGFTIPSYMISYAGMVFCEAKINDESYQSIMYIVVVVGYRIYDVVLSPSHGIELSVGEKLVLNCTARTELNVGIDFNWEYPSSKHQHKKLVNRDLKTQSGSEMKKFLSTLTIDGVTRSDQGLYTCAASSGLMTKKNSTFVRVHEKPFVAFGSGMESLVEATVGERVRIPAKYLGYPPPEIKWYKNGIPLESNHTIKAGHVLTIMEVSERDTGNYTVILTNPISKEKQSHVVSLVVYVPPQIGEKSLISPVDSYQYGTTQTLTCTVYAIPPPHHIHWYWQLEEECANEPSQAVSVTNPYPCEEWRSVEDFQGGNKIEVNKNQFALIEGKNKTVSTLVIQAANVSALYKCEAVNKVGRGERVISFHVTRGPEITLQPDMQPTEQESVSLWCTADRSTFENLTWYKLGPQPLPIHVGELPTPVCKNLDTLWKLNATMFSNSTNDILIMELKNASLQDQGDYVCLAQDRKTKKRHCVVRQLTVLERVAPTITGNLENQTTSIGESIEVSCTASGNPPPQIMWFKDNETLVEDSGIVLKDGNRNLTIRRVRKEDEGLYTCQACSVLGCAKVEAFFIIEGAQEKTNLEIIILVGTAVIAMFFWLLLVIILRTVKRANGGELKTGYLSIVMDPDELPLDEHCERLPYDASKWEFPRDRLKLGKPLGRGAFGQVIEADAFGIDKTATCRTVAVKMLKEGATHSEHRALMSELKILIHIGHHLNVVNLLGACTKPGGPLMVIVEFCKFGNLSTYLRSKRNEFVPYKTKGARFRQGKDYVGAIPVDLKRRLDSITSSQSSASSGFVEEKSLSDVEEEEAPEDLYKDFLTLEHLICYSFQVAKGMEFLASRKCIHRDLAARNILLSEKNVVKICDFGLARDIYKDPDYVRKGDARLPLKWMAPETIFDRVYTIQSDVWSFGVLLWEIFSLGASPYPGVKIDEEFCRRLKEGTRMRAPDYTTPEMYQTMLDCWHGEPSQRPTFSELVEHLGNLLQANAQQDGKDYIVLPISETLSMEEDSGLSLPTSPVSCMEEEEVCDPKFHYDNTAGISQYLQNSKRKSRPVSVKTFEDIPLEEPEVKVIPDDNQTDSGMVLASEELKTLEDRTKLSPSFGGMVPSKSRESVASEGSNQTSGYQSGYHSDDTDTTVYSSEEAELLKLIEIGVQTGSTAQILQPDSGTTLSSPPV

One assay has as its target T1, Vascular endothelial growth factor receptor 2 (Homo sapiens, UniProt P35968). Nature of the assay: Inhibition of KDR assessed as phosphorylation level of substrate by ELISA. In general terms: ELISA stands for enzyme-linked immunosorbent assay.
As for `O=C(Nc1cccc(C(F)(F)F)c1)c1c[nH]c2cccc(SCc3ccncc3)c12`, the IC50 (usually the midpoint of a concentration-inhibition curve) stood at 309 nM.

Another assay has as its target T1, Vascular endothelial growth factor receptor 2. Nature of the assay: Inhibition of KDR assessed as phosphorylation level of substrate at 10 uM by ELISA.
As for `O=C(Nc1ccc(OC(F)(F)F)cc1)c1c[nH]c2cccc(SCc3ccncc3)c12`, the inhibition – broadly, how much of the control response was suppressed – came to 35%.

For `CC(C)(C)c1ccc(NC(=O)c2c[nH]c3cccc(OCc4ccncc4)c23)cc1`, the inhibition is 6%.

Take `O=C(Nc1cc2ccccc2cn1)c1c[nH]c2cccc(SCc3ccncc3)c12`: the inhibition worked out at 74%.

In the case of `O=C(Nc1cccc(C(F)(F)F)c1)c1c[nH]c2cccc(OCc3ccncc3)c12`, the inhibition was 4%.

With `O=C(Nc1ccc2c(c1)CCC2)c1c[nH]c2cccc(OCc3ccncc3)c12`, the inhibition is 19%.

For the compound `O=C(Nc1cc2ccccc2cn1)c1c[nH]c2cccc(NCc3ccncc3)c12`, the inhibition worked out at 55%.

In the case of `O=C(Nc1ccc2c(c1)CCC2)c1c[nH]c2cccc(NCc3ccncc3)c12`, the inhibition amounted to 27%.

`O=C(Nc1cccc(Cl)c1)c1c[nH]c2cccc(NCc3ccncc3)c12`: the inhibition amounted to 18%.

In the case of `Cc1cc(C)cc(NC(=O)c2c[nH]c3cccc(SCc4ccncc4)c23)c1`, the inhibition came to 35%.

Consider `Cc1cc(C)cc(NC(=O)c2c[nH]c3cccc(NCc4ccncc4)c23)c1`, for which the inhibition stood at 19%.

In the case of `O=C(Nc1cccc(C(F)(F)F)c1)c1c[nH]c2cccc(SCc3ccncc3)c12`, the inhibition is 92%.

For `Cc1cccc(NC(=O)c2c[nH]c3cccc(NCc4ccncc4)c23)c1`, the inhibition was 18%.

For the compound `O=C(Nc1ccc2c(c1)CCC2)c1c[nH]c2cccc(SCc3ccncc3)c12`, the inhibition worked out at 59%.

Take `O=C(Nc1ccc(Cl)cc1)c1c[nH]c2cccc(OCc3ccncc3)c12`: the inhibition stood at 9%.

Turning to `CC(C)(C)c1ccc(NC(=O)c2c[nH]c3cccc(NCc4ccncc4)c23)cc1`, the inhibition was 25%.

`CC(C)(C)c1ccc(NC(=O)c2c[nH]c3cccc(SCc4ccncc4)c23)cc1`: the inhibition was found to be 51%.

On to `O=C(Nc1cccc(Cl)c1)c1c[nH]c2cccc(SCc3ccncc3)c12`, for which the inhibition is 35%.

Turning to `O=C(Nc1ccc(Cl)cc1)c1c[nH]c2cccc(NCc3ccncc3)c12`, the inhibition is 23%.

`Cc1cccc(NC(=O)c2c[nH]c3cccc(SCc4ccncc4)c23)c1`: the inhibition worked out at 52%.

Turning to `O=C(Nc1cccc(C(F)(F)F)c1)c1c[nH]c2cccc(NCc3ccncc3)c12`, the inhibition worked out at 25%.

With `O=C(Nc1ccc(Cl)cc1)c1c[nH]c2cccc(SCc3ccncc3)c12`, the inhibition is 34%.

For the compound `O=C(Nc1ccc(OC(F)(F)F)cc1)c1c[nH]c2cccc(NCc3ccncc3)c12`, the inhibition was 14%.

The values are drawn from ChEMBL document CHEMBL1681739, “KDR inhibitor with the intramolecular non-bonded interaction: conformation-activity relationships of novel indole-3-carboxamide derivatives” (Bioorg Med Chem Lett, 2011).
